Assay results published in patent publication US20240124444A1 (Celgene Corporation, priority 2020, published 2024).
Like-named read-outs stand apart in the source and are kept apart here.

Tested on: C. parvum strain UGA1
Assay: C. parvum growth inhibition assay (Nluc luminescence in HCT-8 cells)
Type: cell-based, Cryptosporidium parvum
Conditions: Cryptosporidium parvum; for EC50: HCT-8, 48 h, C. parvum growth inhibition in HCT-8 cells, 48 hours, 6 concentrations 10-0.04 μM; for inhibition at 1 µM / inhibition at 10 µM: HCT-8; for inhibition at 1 µM: read-out: % inh @ 1 uM C. parvum; for inhibition at 10 µM: read-out: % inh @ 10 uM C. parvum
[1] = single point inhibition @ 10 uM
[2] = single point inhibition at 1 uM
[3] = single point inhibition at 10 uM

| Compound | EC50 | inhibition at 1 µM (single point inhibition @ 1 uM) | inhibition at 10 µM [1] | inhibition at 1 µM [2] | inhibition at 10 µM [3] |
| --- | --- | --- | --- | --- | --- |
| Cn1c(-c2ccnc(NCC(F)(F)F)n2)cc2cnc(NC(C)(C)C)cc21 [Example 384, N-tert-butyl-1-methyl-2-(2-(2,2,2-trifluoroethylamino)pyrimidin-4-yl)-1H-pyrrolo[3,2-c]pyridin-6-amine] | > 1 µM | – | – | – | – |
| CC(C)n1cc(C(=O)Nc2cc3[nH]c(-c4ccnc(OCC(F)(F)F)n4)cc3cn2)cn1 [Example 186, 1-isopropyl-N-(2-(2-(2,2,2-trifluoroethoxy)pyrimidin-4-yl)-1H-pyrrolo[3,2-c]pyridin-6-yl)-1H-pyrazole-4-carboxamide] | – | 0 to 33% | 67 to 100% | – | – |
| Cc1cc(-c2cc3cnc(NC(=O)C4CCCO4)cc3[nH]2)ccn1 (stereo in doubt) [Example 182, (S)-N-(2-(2-methylpyridin-4-yl)-1H-pyrrolo[3,2-c]pyridin-6-yl)tetrahydrofuran-2-carboxamide] | – | 0 to 33% | 67 to 100% | – | – |
| Cc1ncc(-c2cc3cnc(NC(=O)c4cnn(C)c4)cc3[nH]2)o1 [Example 267, 1-methyl-N-(2-(2-methyloxazol-5-yl)-1H-pyrrolo[3,2-c]pyridin-6-yl)-1H-pyrazole-4-carboxamide] | – | – | – | 0 to 33% | 0 to 33% |
| O=C(Nc1cc2[nH]c(-c3ccncc3)cc2cn1)c1ccccc1 [Example 277, N-(2-(pyridin-4-yl)-1H-pyrrolo[3,2-c]pyridin-6-yl)benzamide] | – | – | – | 0 to 33% | 0 to 33% |
| Cc1cc(-c2cc3cnc(NC(=O)c4cccc5cn[nH]c45)cc3[nH]2)ccn1 [Example 237, N-(2-(2-methylpyridin-4-yl)-1H-pyrrolo[3,2-c]pyridin-6-yl)-1H-indazole-7-carboxamide] | – | – | – | 0 to 33% | 33 to 66% |
| Cn1cc(C(=O)Nc2cc3[nH]c(-c4ccnc(O[C@H]5CC[C@H](O)CC5)n4)cc3cn2)cn1 [Example 85, N-(2-(2-((1r,4r)-4-hydroxycyclohexyloxy)pyrimidin-4-yl)-1H-pyrrolo[3,2-c]pyridin-6-yl)-1-methyl-1H-pyrazole-4-carboxamide] | > 1 µM | 67 to 100% | 0 to 33% | – | – |
| Cn1cnc(-c2cc3cnc(NC(=O)C4CC4)cc3[nH]2)n1 [Example 65, N-(2-(1-methyl-1H-1,2,4-triazol-3-yl)-1H-pyrrolo[3,2-c]pyridin-6-yl)cyclopropanecarboxamide] | > 1 µM | – | – | – | – |
| CC(C)n1cc(C(=O)Nc2cc3[nH]c(-c4ccncc4)cc3cn2)cn1 [Example 162, 1-isopropyl-N-(2-(pyridin-4-yl)-1H-pyrrolo[3,2-c]pyridin-6-yl)-1H-pyrazole-4-carboxamide] | – | 0 to 33% | 67 to 100% | – | – |
| COc1nccc(-c2cc3cnc(NC(=O)c4cc(C)n(C)n4)cc3[nH]2)n1 [Example 292, N-(2-(2-methoxypyrimidin-4-yl)-1H-pyrrolo[3,2-c]pyridin-6-yl)-1,5-dimethyl-1H-pyrazole-3-carboxamide] | – | – | – | 0 to 33% | 0 to 33% |
| CCOc1nccc(-c2cc3cnc(NC(=O)CC4COC4)cc3[nH]2)n1 [Example 139, N-(2-(2-ethoxypyrimidin-4-yl)-1H-pyrrolo[3,2-c]pyridin-6-yl)-2-(oxetan-3-yl)acetamide] | – | 0 to 33% | 67 to 100% | – | – |
| CCOc1nccc(-c2cc3cnc(NC(=O)[C@@H]4C[C@H]4C)cc3[nH]2)n1 (stereo in doubt) [Example 153, (1R,2R)-N-(2-(2-ethoxypyrimidin-4-yl)-1H-pyrrolo[3,2-c]pyridin-6-yl)-2-methylcyclopropanecarboxamide] | – | 0 to 33% | 67 to 100% | – | – |
| O=C(Nc1cc2[nH]c(-c3cnc(C(F)(F)F)o3)cc2cn1)C1CC1 [Example 110, N-(2-(2-(trifluoromethyl)oxazol-5-yl)-1H-pyrrolo[3,2-c]pyridin-6-yl)cyclopropanecarboxamide] | > 1 µM | – | – | – | – |
| Cc1nccc(-c2cc3cnc(NC(=O)c4cnn(C)c4)cc3[nH]2)n1 [Example 185, 1-methyl-N-(2-(2-methylpyrimidin-4-yl)-1H-pyrrolo[3,2-c]pyridin-6-yl)-1H-pyrazole-4-carboxamide] | – | 0 to 33% | 67 to 100% | – | – |
| COc1nccc(-c2cc3cnc(NC(=O)c4cnn(C(C)C)c4)cc3n2C)n1 [Example 309, 1-isopropyl-N-(2-(2-methoxypyrimidin-4-yl)-1-methyl-1H-pyrrolo[3,2-c]pyridin-6-yl)-1H-pyrazole-4-carboxamide] | – | – | – | 0 to 33% | 0 to 33% |
| COc1cccc(Nc2cc3[nH]c(-c4cnn(C)c4)cc3cn2)c1 [Example 197, N-(3-methoxyphenyl)-2-(1-methyl-1H-pyrazol-4-yl)-1H-pyrrolo[3,2-c]pyridin-6-amine] | – | 0 to 33% | 67 to 100% | – | – |
| O=C(Nc1cc2[nH]c(-c3ccncc3)cc2cn1)[C@@H]1CCOC1 [Example 135, (R)-N-(2-(pyridin-4-yl)-1H-pyrrolo[3,2-c]pyridin-6-yl)tetrahydrofuran-3-carboxamide] | – | 0 to 33% | 67 to 100% | – | – |
| Cc1cc(-c2cc3cnc(NC(=O)N4CCCC4)cc3[nH]2)ccn1 [Example 261, N-(2-(2-methylpyridin-4-yl)-1H-pyrrolo[3,2-c]pyridin-6-yl)pyrrolidine-1-carboxamide] | – | – | – | 0 to 33% | 0 to 33% |
| CN(CC(F)(F)F)c1nccc(-c2cc3cnc(NC4CCOCC4)cc3n2C)n1 [Example 30, 1-Methyl-2-(2-(methyl(2,2,2-trifluoroethyl)amino)pyrimidin-4-yl)-N-(tetrahydro-2h-pyran-4-yl)-1H-pyrrolo[3,2-c]pyridin-6-amine] | > 1 µM | 0 to 33% | – | – | – |
| Cn1cc(C(=O)Nc2cc3[nH]c(-c4cncn4C)cc3cn2)cn1 [Example 90, 1-methyl-N-(2-(1-methyl-1H-imidazol-5-yl)-1H-pyrrolo[3,2-c]pyridin-6-yl)-1H-pyrazole-4-carboxamide] | > 1 µM | 33 to 66% | 0 to 33% | – | – |
| Cc1cc(-c2cc3cnc(NC4CCN(C)CC4)cc3n2C)ncn1 [Example 117, 1-methyl-N-(1-methylpiperidin-4-yl)-2-(6-methylpyrimidin-4-yl)-1H-pyrrolo[3,2-c]pyridin-6-amine] | > 1 µM | – | – | – | – |
| Cc1cc(-c2cc3cnc(NC(=O)[C@H]4C[C@H](O)C4)cc3[nH]2)ccn1 [Example 187, (1r,3r)-3-hydroxy-N-(2-(2-methylpyridin-4-yl)-1H-pyrrolo[3,2-c]pyridin-6-yl)cyclobutanecarboxamide] | – | 33 to 66% | 67 to 100% | – | – |
| Cn1cncc1-c1cc2cnc(Nc3ccc(F)cc3)cc2[nH]1 [Example 229, N-(4-fluorophenyl)-2-(1-methyl-1H-imidazol-5-yl)-1H-pyrrolo[3,2-c]pyridin-6-amine] | – | – | – | 33 to 66% | 33 to 66% |
| Cn1cc(C(=O)Nc2cc3c(cn2)cc(-c2ccnc(NCC4CC4)n2)n3C)cn1 [Example 159, N-(2-(2-(cyclopropylmethylamino)pyrimidin-4-yl)-1-methyl-1H-pyrrolo[3,2-c]pyridin-6-yl)-1-methyl-1H-pyrazole-4-carboxamide] | – | 0 to 33% | 67 to 100% | – | – |
